# In article PMC10577379, “Isolation of anticancer bioactive secondary metabolites from the sponge-derived endophytic fungi Penicillium sp. and in-silico computational docking approach” (Frontiers in Microbiology, 2023):
# Entries after “also recorded” stand apart in the source; their conditions may differ. Read-outs that look alike come from different tables or passages of the source.
# Key:
# A549 = assay: Cytotoxicity, Cell Counting Kit (CCK-8); type: cell-based; conditions: Homo sapiens, CCK-8, mean ± SD, n = 3, unit from b62 and Table S1 title (there headed MIC)
# Protocol: (§1) Cytotoxicity was assessed using the Cell Counting Kit (CCK-8) (Dojindo, Japan) method adopted by Wang et al. ([2015a]). Cancer cell lines used in this study included K562, MCF-7, A549, HuH-7, H1975, HeLa, HL7702, DU145, HL60, MOLT-4. Additionally, a normal cell line, MCF10A, was included. All cell lines were procured from Shanghai Cell Bank, Chinese Academy of Sciences. Cells were routinely grown and maintained in RPMI or DMEM media with 10% Fetal Bovine Serum and 1% penicillin/streptomycin. Various concentrations of seven isolated compounds from Penicillium sp. were dissolved in 100% DMSO with a maximum concentration of 200 μg/mL and serially diluted to a final 0.1% DMSO concentration to treat cells for […]. Taxol was used as a positive control, and DMSO was used as a negative control. Cytotoxicity screening assay experiments were conducted in triplicate to obtain the standard error ± mean value. The percentage of cytotoxicity (IC50) alongside the selectivity index was then calculated using the formula:
# (§2) IC50=(absorbance of the cell without treatment -absorbance of cells with treatment/ absorbance of the cell without treatment)× 100
# (§3) Selective index (SI)=CC50value for normal cells/IC50for cancer cells
# DU145 = assay: Cytotoxicity, Cell Counting Kit (CCK-8); type: cell-based; conditions: Homo sapiens, DU-145; CCK-8, mean ± SD, n = 3; unit from b62 and Table S1 title (there headed MIC)
# Protocol: as §1, §2, §3
# H1975 = assay: Cytotoxicity, Cell Counting Kit (CCK-8); type: cell-based; conditions: Homo sapiens, NCI-H1975; CCK-8, mean ± SD, n = 3; unit from b62 and Table S1 title (there headed MIC)
# Protocol: as §1, §2, §3
# HL7702 = assay: Cytotoxicity, Cell Counting Kit (CCK-8); type: cell-based; conditions: Homo sapiens, L02; CCK-8, mean ± SD, n = 3; unit from b62 and Table S1 title (there headed MIC)
# Protocol: as §1, §2, §3
# HeLa = assay: Cytotoxicity, Cell Counting Kit (CCK-8); type: cell-based; conditions: Homo sapiens, CCK-8, mean ± SD, n = 3, unit from b62 and Table S1 title (there headed MIC)
# Protocol: as §1, §2, §3
# Huh-7 = assay: Cytotoxicity, Cell Counting Kit (CCK-8); type: cell-based; conditions: Homo sapiens, CCK-8, mean ± SD, n = 3, unit from b62 and Table S1 title (there headed MIC)
# Protocol: as §1, §2, §3
# K562 = assay: Cytotoxicity, Cell Counting Kit (CCK-8); type: cell-based; conditions: Homo sapiens, CCK-8, mean ± SD, n = 3, unit from b62 and Table S1 title (there headed MIC)
# Protocol: as §1, §2, §3
# MCF-7 = assay: Cytotoxicity, Cell Counting Kit (CCK-8); type: cell-based; conditions: Homo sapiens, MCF7; CCK-8, mean ± SD, n = 3; unit from b62 and Table S1 title (there headed MIC)
# Protocol: as §1, §2, §3
# MOLT-4 = assay: Cytotoxicity, Cell Counting Kit (CCK-8); type: cell-based; conditions: Homo sapiens, CCK-8, mean ± SD, n = 3, unit from b62 and Table S1 title (there headed MIC)
# Protocol: as §1, §2, §3
# HL60 cells = assay: Cytotoxicity, Cell Counting Kit (CCK-8); type: cell-based, human; conditions: for IC50: Homo sapiens; for anticancer activity toward HL60 cells: in words
# Protocol: as §1, §2, §3
# MCF-10A = assay: Cytotoxicity, Cell Counting Kit (CCK-8), normal cell line; type: cell-based; conditions: Homo sapiens, CCK-8, n = 3, unit from Table S1 title
# Protocol: as §1, §2, §3
# [1] = system: Mycobacterium tuberculosis H37Ra (ATCC 25177); assay: Anti-tuberculosis assay (MIC); type: cell-based; conditions: M. tuberculosis H37Ra, read-out: Antitubercular activity MIC
# Protocol: The H37Ra strain of Mycobacterium tuberculosis (ATCC 25177) purchased from the American Type Culture Collection (ATCC) was used in the anti-TB bioassay. The anti-tuberculosis assay was based on the one used by Wang et al. ([2015b]). INH (Isoniazid) was used as the positive control, and DMSO was used as a negative control. For the minimum inhibitory concentration (MIC) analysis, 100 μl of Mycobacterium suspension was prepared in a 96-well microtiter plate. A total of […] of double serial dilution of various concentrations of 7 isolated compounds (from 0.08 to 20 μg/mL) alongside the positive control isoniazid (1 to 417 μg/mL) was added to the well.
# [2] = system: Staphylococcus aureus (CGMCC 1.230); assay: Antimicrobial assay (MIC); type: cell-based; conditions: CGMCC1, 37°C, 24 h, read-out: MIC S. aureus
# [3] = system: Escherichia coli (CGMCC 1.2385); assay: Antimicrobial assay (MIC); type: cell-based; conditions: CGMCC1, 37°C, 24 h
# cancer cell lines = assay: Anticancer screening, whole cell line panel; type: cell-based; conditions: in-vitro screening, tested cell lines, in words
# Protocol: as §1, §2, §3
# SGC-7901 cell line = system: SGC-7901 cell line; design: method as in Yang et al., 2009; conditions: in words; ref Yang et al., 2009; cited from earlier work
# K562 cell lines = system: K562 cell lines; design: method as in Hong et al., 2007; conditions: averufin from Penicillium flavidorsum SHK1-27; ref Hong et al., 2007; cited from earlier work
# [4] = HL-60, CCK-8, mean ± SD, n = 3, unit from b62 and Table S1 title (there headed MIC), read-out: IC50 HL60
SMILES,IC50 (A549),IC50 (DU145),IC50 (H1975),IC50 (HL7702),IC50 (HeLa),IC50 (Huh-7),IC50 (K562),IC50 (MCF-7),IC50 (MOLT-4),IC50 (HL60 cells; [4]),IC50 (MCF-10A),MIC [1],also measured
"CC(=O)O[C@H]1C(=O)[C@@]2(C)[C@H]([C@H](OC(=O)c3ccccc3)[C@]3(O)C[C@H](OC(=O)[C@H](O)[C@@H](NC(=O)c4ccccc4)c4ccccc4)C(C)=C1C3(C)C)[C@]1(OC(C)=O)CO[C@@H]1C[C@@H]2O [Taxol, reference compound]",0.024 ± 0.01 µM,0.015 ± 0.01 µM,0.014 ± 0.01 µM,0.003 µM,0.003 µM,0.003 µM,0.003 µM,0.002 µM,0.003 µM,0.002 µM,≥ 50 µM,,
"NNC(=O)c1ccncc1 [INH, Isoniazid, reference compound]",,,,,,,,,,,,3.98 µM,
"O=C(O)c1cn(C2CC2)c2cc(N3CCNCC3)c(F)cc2c1=O [ciprofloxacin, Ciprofloxacin]",,,,,,,,,,,,,MIC [2]: 2.96 µM; MIC [3]: 0.19 µM
"COc1cc(O)cc2c1C(=O)c1c(O)cc(C)cc1C2=O [Compound 5, methyl emodin]",81.3 ± 0.01 µM,101.4 ± 0.01 µM,43.5 ± 0.01 µM,67.2 ± 0.01 µM,24.9 ± 0.01 µM,25.1 ± 0.01 µM,16.3 ± 0.01 µM,54.3 ± 0.01 µM,13.6 ± 0.01 µM,13.2 ± 0.01 µM,≥ 50 µM,> 50 µM,anticancer activity toward HL60 cells (HL60 cells): moderate activity; anticancer effect against cancer cell lines (cancer cell lines): significant anticancer effect; also recorded: weak anticancer effect; anticancer effect against the SGC-7901 cell line (SGC-7901 cell line): moderate anticancer effect
"CCCCC[C@@H](c1ccc(Oc2cc(C)cc(O)c2)cc1)c1c(O)cc2c(c1O)C(=O)c1cc(O)cc(O)c1C2=O [Compound 2, aspergilol-A]",,,,,,,,,,,,> 50 µM,
"COC(=O)c1cc(O)cc(OC)c1C(=O)c1c(O)cc(C)cc1O [Compound 3, sulochrin]",,,,,,,,,,,,> 50 µM,
"CC12CCCC(O1)c1c(cc3c(c1O)C(=O)c1c(O)cc(O)cc1C3=O)O2 (stereo not drawn) [Compound 1, averufin]",76.1 ± 0.01 µM,91.2 ± 0.01 µM,8.64 ± 0.01 µM,3.57 ± 0.01 µM,8.11 ± 0.01 µM,3.13 ± 0.01 µM,17.4 ± 0.01 µM,6.71 ± 0.01 µM,5.77 ± 0.01 µM,1 µM,≥ 50 µM,> 50 µM,"IC50 (HL60 cells; HL-60, read-out: IC50 concentration, HL60 cell lines): 1 µM; anticancer activity toward HL60 cells (HL60 cells): strong anticancer activity; anticancer effect against cancer cell lines (cancer cell lines): significant anticancer effect; MIC, antitumor activity toward K562 cell lines (K562 cell lines): 72.4 µM"
"Cc1cc(O)cc(Oc2cc(C)cc(O)c2)c1 [Compound 7, diorcinol]",,,,,,,,,,,,> 50 µM,
